Assay results: patent US20140248212A1, “NON-IMMUNOGENIC POSITRON EMISSION TOMOGRAPHY REPORTER GENE SYSTEMS” (THE REGENTS OF THE UNIVERSITY OF CALIFORNIA, priority 2011, published 2014)
Entries after “also recorded” stand apart in the source; their conditions may differ.

How the values were obtained:
[1] = test system: TK2-N93D/L109F-expressing L1210 cells; test: L-18F-FMAU uptake assay, transduced L1210 cells (TK2-N93D/L109F); assay type: cell-based, murine
Protocol: The L1210 cell line (see, e.g. Jordheim, L. P., et al. (2004) Clin. Cancer Res. 10, 5614-5621) was a gift. Cells were cultured at 5% v/v CO2 and 37° C. in RPMI supplemented with 5% v/v FCS. Murine stem cell virus (pMSCV)-based helper-free retroviruses encoding the TK2 mutants (or sr39tk), an internal ribosomal entry site, and the yellow fluorescent protein (YFP) were produced by transient co-transfection of the amphotrophic retrovirus packaging cell line Phoenix (American Type Culture Collection, SD 3443) (see, e.g. Hawley, R. G., et al. (1994) Gene. Ther. 1, 136-138). L1210 cells underwent spinfection with the pMSCV-TK2 mutants-internal ribosomal entry site-YFP retrovirus with 2 μg/ml Polybrene (1000×g, 120 min, 37° C.). L1210 cells expressing various PRGs, (L1210-PRG) were FACS-sorted to ensure that each population had equivalent levels of PRG expression.
L1210 cells transduced with the indicated PET reporter genes (L1210-PRG) were seeded at a density of 500,000 cells/well in 24-well plates. 5 μCi of L-^18F-FMAU were added to the L1210-PRG cells simultaneously with the indicated amounts of D-thymidine (D-dT) at a final volume of 1 ml/well. After 1 h at 37° C., cells were harvested and washed four times with ice-cold PBS. Radioactivity was measured using a gamma counter.

[2] = Biodistribution of PET reporter probes in mice (microPET/CT); assay type: in vivo, C57/BL6 mice
Protocol: To identify candidate PRPs, eight nucleoside analogs (FIG. 7A) were synthesized that were amenable to ^18F labeling (the first criterion for PRPs). To identify PRP candidates with rapid clearance from normal tissues and low overall background (second criterion for PRGs), biodistribution studies in mice were performed. It was observed that natural (D) nucleosides had higher background than non-natural (L) nucleoside analogs. […] The next step was to identify a human nucleoside kinase that phosphorylates L-[^18F]FMAU and L-[^18F]FEAU, and can be converted into a new PRG that matches four criteria:
Initially, a group of nucleoside analogs amenable to fluorine-18 labeling were identified. These PET tracers, 5 of which were novel, were then screened to determine their biodistribution in C57/BL6 mice (n=3 for each PET tracer) through dynamic microPET scans. […] Rational design is utilized to introduce mutations into human nucleoside kinase thymidine kinase 2 (TK2) to improve the affinity of the kinase for the top candidate probe. The sensitivity and specificity of the novel PET reporter probe/gene pair was then determined in vitro and in vivo using a murine cancer model.
Animal studies were approved and carried out according to specific guidelines. C57/BL6 mice were injected with the indicated probe and underwent micro-PET/CT analyses at 1- and 3-h post probe injection (Inveon, Siemens Medical Solutions USA Inc.; microCAT; Imtek Inc.). For tumor imaging studies, SCID mice were injected subcutaneously on day −7 in the right and left flanks with 1×10^6 L1210-PRG-expressing cells in 50% v/v phosphate-buffered saline and 50% v/v Matrigel™ (BD Biosciences). For imaging experiments, mice were kept warm and under gas anesthesia (2% v/v isoflurane) and were injected intravenously with 200 μCi of ^18F-labeled probes. A 3-h interval was allowed between probe administration and microPET/CT scanning Static microPET images were acquired for 600 s. Image data were evaluated in three-dimensional histograms and reconstructed with a zoom factor of 2.1 using three-dimensional ordered set expectation maximization (OSEM) with 2 iterations followed by MAP (maximum a posteriori) reconstruction with 18 iterations (beta=0.1). Images were analyzed using OsiriX Imaging Software Version 3.8.

[3] = Human whole-body PET/CT biodistribution of PET reporter probes; assay type: in vivo; conditions: for accumulation in myocardium / heart and liver: healthy volunteers; for intestinal / GI tract activity compared with 18F-FHBG / tracer background within abdomen and pelvis: human; for tracer background within abdomen and pelvis: whole-body PET/CT
Excerpt: All studies involving human volunteers were approved. A healthy person and a healthy volunteer were recruited for the L-^18F-FMAU biodistribution study. Each volunteer received a bolus intravenous injection of ˜56 MBq (1.5 mCi) sterile L-^18F-FMAU and had four consecutive whole-body (starting from just above the head to above the knees, 6 bed positions, 5-min scan at each bed position) PET scans (Biograph 64, Siemens), with the first scan starting shortly after intravenous injection of L-^18F-FMAU. A low dose CT scan was also obtained for attenuation correction. Volunteers urinated after all scans had been performed. The region of interest analysis was performed to measure mean standard uptake values of L-^18F-FMAU in major organs/tissues. To illustrate the biodistribution of ^18F-FHBG, unpublished scan from a previous study (see, e.g. Yaghoubi, S. S., et al. (2009) Nat. Clin. Pract. Oncol. 6, 53-58) was used.

## Cc1cn([C@H]2O[C@@H](CO)[C@H](O)[C@H]2[18F])c(=O)[nH]c1=O [L-^18F-FMAU, 2′-deoxy-2′-^18F-5-methyl-1-β-L-arabinofuranosyluracil]
[1]; TK2-N5 (TK2-N93D/L109F)
  in vitro uptake of 18F-L-FMAU compared to TK2-N0: two-fold increase
  inhibition of uptake by thymidine compared to TK2-N0: less resistance to inhibition by thymidine
[1]; absence of D-dT
  L-18F-FMAU uptake, higher than that of TK2-L109F cells: ~4 times
  L-18F-FMAU uptake, higher than that of TK2-N93D cells: 1.5 times
[1]; in the presence of 5 μM D-dT
  decrease of L-18F-FMAU uptake: 47%
[2]; 1-h post injection (data not shown)
  accumulation in the liver: accumulates in the liver
[2]; 3-h time point
  accumulation in the liver: neither probe showed any accumulation
[2]; 3 h after administration
  accumulation in the gallbladder: 1.68±0.46 % injected dose/g
  retention in the thoracic cavity: very low retention
  signals in the GI tract: only detected in the lower GI tract
[2]; candidate 18F nucleoside analog probes in mice, FIG. 7B
  overall background (biodistribution): lowest overall background
[2]; increasing uptake time from 1 to 3 hours
  non-specific GI signals: almost completely eliminated
[2]; mice
  GI activity compared with 18F-FHBG-injected mice: significantly less intense
[3]; 2 h post-administration
  tissues with relatively high signals: relatively high signals were observed in liver, kidneys, gall bladder, bladder, and the GI tract
[3]; at 2 h
  liver activity compared with 18F-FHBG: more intense activity
[3]; first in human study, FIG. 20
  uptake pattern in healthy volunteer: mainly in its clearance routes, liver and bladder, with relatively low accumulation in intestines and some accumulation in the heart
[3]
  accumulation in myocardium / heart and liver: accumulation was also observed in the myocardium; also recorded: accumulates in the myocardium and liver
  intestinal / GI tract activity compared with 18F-FHBG: lower than that of ^18F-FHBG
[3]; listed as L-[^18F]FMAU
  accumulation in myocardium / heart and liver: accumulates in these tissues
  tracer background within abdomen and pelvis: very low tracer background
[3]; listed as 18F-L-FMAU
  intestinal / GI tract activity compared with 18F-FHBG: lower intestinal background
[3]; listed as L-[^18F]-FMAU
  tracer background within abdomen and pelvis: very low background in abdominal cavity
